According to US20250212902A1, “METHOD AND COMPOSITION FOR IMPROVEMENT OF AGRICULTURAL PRODUCE” (UPL CORPORATION LIMITED, priority 2022, published 2025):

Legend:
[1] = tested on: grape; assay: Post-harvest bunch weight in grape (Example 7); format: in vivo; settings: 19 days after harvest, Example 7 Trial 2
Procedure: (§1) 10 applications […] were performed with an interval of 3 days with the 1st application being at inflorescence stage (BBCH 53). Severity of disease was evaluated in at least 20 leaves/plot, prior evaluation was performed before the first application, at 3 days after each application and at 7 and 10 days after the last application. Phytotoxicity (0 to 100%) was evaluated before each spray and at 3 days after each application. Post-harvest bunch weight was evaluated at 19 days after harvest. Control of powdery mildew was recorded as % control. Yield was evaluated as Kg/ha. Post-harvest bunch weight was recorded as g/bunch. […] 10 applications […] were performed with an interval of 3 days with the 1st application being at inflorescence stage (BBCH 53). Severity of disease was evaluated in at least 20 leaves/plot, prior evaluation was performed before the first application, at 3 days after each application and at 7 and 10 days after the last application. Phytotoxicity (0 to 100%) was evaluated before each spray and at 3 days after each application. Post-harvest bunch weight was evaluated at 19 days after harvest. Control of powdery mildew was recorded as % control. Post-harvest bunch weight was recorded as g/bunch.

[2] = tested on: powdery mildew (Uncinula necator); assay: Control of powdery mildew in grape; format: in vivo; settings: Example 7 Trial 2, 10 applications, 3 day interval
Procedure: as §1

O=C([O-])O.[K+] [Potassium bicarbonate, potassium bicarbonate]
Post-harvest bunch weight (g/bunch) [1]: 420.3 g/bunch
% Control of Uncinula necator [2]: 67.7%
